According to patent publication US8871781B2, “Methods and compositions for treating a subject for a lymphatic malformation” (The Board of Trustees of the Leland Stanford Junior …, priority 2011, dated 2014):
Entries after “also recorded” stand apart in the source; their conditions may differ.

How the values were obtained:
Type in all cases: in vivo, human
lymphatic malformation [1] = assay: Index patient: infant with microcystic venolymphatic malformation given sildenafil for pulmonary hypertension
Text: FIG. 1, Panels A-B depict pre- and post-treatment magnetic resonance imaging (MRI) contrast-enhanced images of a subject with a lymphatic malformation treated in accord with the subject methods. […] Contrast highlights the heart with right ventricular enlargement (dashed arrow), aorta, and pulmonary vessels.
An infant was born with massive enlargement of their right chest and arm. […], the infant developed tachypnea due to congestive heart failure and pulmonary edema. […] At 9 months, cardiac catheterization confirmed the diagnosis of idiopathic pulmonary hypertension and sildenafil was started (initially 0.5 mg/kg/dose TID and titrated to 0.75 mg/kg/dose TID). […] The post-MRI course was complicated by worsening cardiopulmonary interactions, respiratory failure and subsequent cardiac failure leading to their death.

lymphatic malformations = assay: Pilot study: sildenafil for 12 weeks in two children with disabling LMs
Description: Based on the observation of marked regression in a lymphatic malformation after starting sildenafil, a pilot study to treat otherwise healthy children with LMs with sildenafil was approved by the Stanford University Human Research Protection Program (IRB). After informed consent was obtained, sildenafil (goal dose 1.0 mg/kg/dose TID) was administered to two children with disabling LMs for 12 weeks, and results are summarized in Table 1.

lymphatic malformation [2] = assay: Clinical trial: MRI before and after 20 weeks of sildenafil; settings: for volume of the lymphatic malformation after 20 weeks: MRI; for decrease of the volume of the lymphatic malformation: over 20 weeks
Description: An additional 7 subjects were enrolled into a clinical trial. Sildenafil was administered substantially as described above in Examples 1-2. […] Three subjects completed the 20 week trial and had the follow up MRI completed; the remaining four subjects are still undergoing the trial.

[3] = Subject 1, LM of left orbit, upper and lower eyelids
[4] = Subject 2, LM of right axilla, after 12 weeks of treatment (FIG. 3, Panel B)
[5] = Subject 2, LM of right axilla, chest
[6] = Subject 2, LM of right upper back

CCCc1nn(C)c2c(=O)[nH]c(-c3cc(S(=O)(=O)N4CCN(C)CC4)ccc3OCC)nc12 [sildenafil]
MRI finding of the malformation after therapy (lymphatic malformation [1]; cardiac MRI (FIG. 1, Panel B)): minimal residual lymphatic malformation; also recorded: near complete resolution of the malformation | role of sildenafil in the patient's death (lymphatic malformation [1]; death from respiratory and cardiac failure): not thought to play a role in their death | skin examination of the malformation (lymphatic malformation [1]; four months after starting sildenafil): thin, bluish plaque and redundant tissue | change in size of the malformation (lymphatic malformation [1]; sildenafil, 0.5 titrated to 0.75 mg/kg/dose TID): gradually decreased in size | change of the lesion after stopping the medication (lymphatic malformations; Subject 1): enlargement of the lesion | Adverse effects (lymphatic malformations; Subject 1, 12 weeks of therapy): Loose yellow | clinical change of eyelid LM (lymphatic malformations; Subject 1, after 3 weeks of therapy): improved eye opening and definition of the upper eyelid fold and superior palpebral sulcus | improvement of LM (lymphatic malformations; Subject 1, at the end of treatment (12 weeks)): 25% | Change in LM 4 weeks after discontinuing therapy (lymphatic malformations; [3]): Enlargement | Parent impression of change in LM after 12 weeks of therapy (lymphatic malformations; [3]): Fair | Adverse effects (lymphatic malformations; Subject 2, 12 weeks of therapy): None | consistency of the lesion (lymphatic malformations; [4]): softer and saggier | reduction in diameter of the lesion (lymphatic malformations; [4]): 1 cm | improvement of LMs (lymphatic malformations; Subject 2, after 8 weeks of treatment): 50% | improvement of LMs (lymphatic malformations; Subject 2, after 12 weeks of treatment): 75% | appearance of the large LM affecting the back (lymphatic malformations; Subject 2, at the 12 week visit (FIG. 2, Panel C)): appeared deflated | change of the LMs after stopping the medication (lymphatic malformations; Subject 2, four weeks after stopping (FIG. 2, Panel D)): mild enlargement | Change in LM 4 weeks after discontinuing therapy (lymphatic malformations; Subject 2, LM of left forearm): Stable | Parent impression of change in LM after 12 weeks of therapy (lymphatic malformations; Subject 2, LM of left forearm): Good | Change in LM 4 weeks after discontinuing therapy (lymphatic malformations; [5]): Stable | Parent impression of change in LM after 12 weeks of therapy (lymphatic malformations; [5]): Good | Change in LM 4 weeks after discontinuing therapy (lymphatic malformations; [6]): Enlargement | Parent impression of change in LM after 12 weeks of therapy (lymphatic malformations; [6]): Good | tolerability (lymphatic malformations; two children, 12 weeks, goal dose 1.0 mg/kg/dose TID): tolerated without significant adverse effects | adverse events associated with the medication (lymphatic malformation [2]; 20 week trial): no adverse events | volume of the lymphatic malformation after 20 weeks (lymphatic malformation [2]; first subject evaluated, 186 cc before sildenafil): 174 cc | decrease of the volume of the lymphatic malformation (lymphatic malformation [2]; first subject evaluated, 186 cc to 174 cc): 6.45% | volume of the lymphatic malformation after 20 weeks (lymphatic malformation [2]; second subject evaluated, 46.5 cc before sildenafil): 42.7 cc | decrease of the volume of the lymphatic malformation (lymphatic malformation [2]; second subject evaluated, 46.5 cc to 42.7 cc): 8.17% | volume of the lymphatic malformation after 20 weeks (lymphatic malformation [2]; third subject evaluated, 56.246 cc before sildenafil): 51.732 cc | decrease of the volume of the lymphatic malformation (lymphatic malformation [2]; third subject evaluated, 56.246 cc to 51.732 cc): 8.03%
